{"source": "patent US20250034110A1", "about": "“LPAR1 ANTAGONISTS AND USES THEREOF” (Pipeline Therapeutics, Inc., priority 2021, published 2025)"}
{"target": "human LPAR1 (Homo sapiens, UniProt Q92633)", "sequence (Q92633 whole entry)": "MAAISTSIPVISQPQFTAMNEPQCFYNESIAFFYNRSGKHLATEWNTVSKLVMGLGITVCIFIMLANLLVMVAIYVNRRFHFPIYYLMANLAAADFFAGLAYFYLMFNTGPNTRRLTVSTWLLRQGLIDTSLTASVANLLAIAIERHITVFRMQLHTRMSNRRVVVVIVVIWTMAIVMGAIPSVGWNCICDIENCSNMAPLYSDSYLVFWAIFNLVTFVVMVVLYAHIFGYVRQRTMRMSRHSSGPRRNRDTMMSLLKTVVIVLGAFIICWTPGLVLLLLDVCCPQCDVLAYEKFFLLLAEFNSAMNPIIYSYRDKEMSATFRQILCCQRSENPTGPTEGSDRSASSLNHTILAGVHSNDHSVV", "experiment": "In vitro functional assay of lysophosphatidic acid receptor 1 activity (calcium flux)", "format": "cell-based", "details": "B103 cells stably expressing human LPAR1; calcium flux (Fluo-4 NW) after lysophosphatidic acid (18:1) at EC80; 100 pM to 10 μM; read-out: LPAR1 IC50", "units": {"IC50": "µM"}}
{"compound": "Cc1nc(OC(F)F)c(NC(=O)N(c2ccccc2C(C)C)[C@H]2CC[C@H](C(=O)O)CC2)cc1F", "note": "[Example 221, (1r,4r)-4-(3-(2-(difluoromethoxy)-5-fluoro-6-methylpyridin-3-yl)-1-(2-isopropylphenyl)ureido)cyclohexane-1-carboxylic acid]", "IC50": "< 0.01"}
{"compound": "Cc1nc(OC(F)F)c(NC(=O)N(c2ccccc2C(C)C)[C@H]2CC[C@@H](CC(=O)O)CC2)cc1F", "note": "[Example 222]", "IC50": "0.01 to 0.1"}
{"compound": "CC(C)c1ccccc1N(C(=O)Nc1cc(F)c(C2CC2)nc1OC(F)F)[C@H]1CC[C@H](C(=O)O)CC1", "note": "[Example 223]", "IC50": "0.01 to 0.1"}
{"compound": "Cc1ccc(NC(=O)N(CC2CC(CC(=O)O)C2)c2ccccc2C(C)C)c(OC(F)F)n1", "note": "(stereo not drawn) [Example 224]", "IC50": "< 0.01"}
{"compound": "Cc1cc(OC(F)F)c(NC(=O)N(C[C@H]2C[C@H](C(=O)O)C2)c2ccccc2C(C)C)cn1", "note": "[Example 227]", "IC50": "0.01 to 0.1"}
{"compound": "Cc1ccc(NC(=O)N(c2ccccc2C(C)C)C2CC3(CC(C(=O)O)C3)C2)c(OC(F)F)n1", "note": "(stereo not drawn) [Example 229]", "IC50": "0.01 to 0.1"}
{"compound": "CC(C)c1ccccc1N(C(=O)Nc1ccc(C2CC2)nc1OC(F)F)[C@H]1CC[C@H](C(=O)O)CC1", "note": "[Example 232]", "IC50": "0.01 to 0.1"}
{"compound": "COc1ccc(NC(=O)N(c2ccccc2C(C)C)C2CC3(CC(C(=O)O)C3)C2)c(OC(F)F)n1", "note": "(stereo not drawn) [Example 233]", "IC50": "0.01 to 0.1"}
{"compound": "COc1ccc(NC(=O)N(CC23CC(C(=O)O)(C2)C3(F)F)c2ccccc2C(C)C)c(OC(F)F)n1", "note": "[Example 234]", "IC50": "0.01 to 0.1"}
{"compound": "Cc1ccc(NC(=O)N(CC23CC(C(=O)O)(C2)C3(F)F)c2ccccc2C(C)C)c(OC(F)F)n1", "note": "[Example 235]", "IC50": "0.01 to 0.1"}
{"compound": "Cc1ccc(NC(=O)N(c2ccccc2C(C)C)C2CCC3(CC2)COC3)c(OC(F)F)n1", "note": "[Example 236, 3-(2-(difluoromethoxy)-6-methylpyridin-3-yl)-1-(2-isopropylphenyl)-1-(2-oxaspiro[3.5]nonan-7-yl)urea]", "IC50": "0.1 to 1"}
{"compound": "Cc1ccc(NC(=O)N(c2ccccc2C(C)C)C2CCC(F)(F)CC2)c(OC(F)F)n1", "note": "[Example 237, 1-(4,4-difluorocyclohexyl)-3-(2-(difluoromethoxy)-6-methylpyridin-3-yl)-1-(2-isopropylphenyl)urea]", "IC50": "0.1 to 1"}
{"compound": "Cc1ccc(NC(=O)N(c2ccccc2C(C)C)[C@H]2CC[C@@H](C(C)(C)O)CC2)c(OC(F)F)n1", "note": "[Example 238, 3-(2-(difluoromethoxy)-6-methylpyridin-3-yl)-1-((1s,4s)-4-(2-hydroxypropan-2-yl)cyclohexyl)-1-(2-isopropylphenyl)urea]", "IC50": "0.1 to 1"}
{"compound": "Cc1ccc(NC(=O)N(c2ccccc2C(C)C)[C@H]2CC[C@H](O)CC2)c(OC(F)F)n1", "note": "[Example 239, 3-(2-(difluoromethoxy)-6-methylpyridin-3-yl)-1-((1r,4r)-4-hydroxycyclohexyl)-1-(2-isopropylphenyl)urea]", "IC50": "0.1 to 1"}
{"compound": "Cc1ccc(NC(=O)N(c2ccccc2C(C)C)[C@H]2CC[C@@H](C#N)CC2)c(OC(F)F)n1", "note": "[Example 240, 1-((1s,4s)-4-cyanocyclohexyl)-3-(2-(difluoromethoxy)-6-methylpyridin-3-yl)-1-(2-isopropylphenyl)urea]", "IC50": "0.1 to 1"}
{"compound": "Cc1ccc(NC(=O)N(c2ccccc2C(C)C)[C@H]2CC[C@H](C#N)CC2)c(OC(F)F)n1", "note": "[Example 241, 1-((1r,4r)-4-cyanocyclohexyl)-3-(2-(difluoromethoxy)-6-methylpyridin-3-yl)-1-(2-isopropylphenyl)urea]", "IC50": "0.1 to 1"}
{"compound": "Cc1ccc(NC(=O)N(c2ccccc2C(C)C)[C@H]2CC[C@@H](CO)CC2)c(OC(F)F)n1", "note": "[Example 242]", "IC50": "0.1 to 1"}
{"compound": "Cc1ccc(NC(=O)N(c2ccccc2C(C)C)C2CCC(=O)CC2)c(OC(F)F)n1", "note": "[Example 243]", "IC50": "0.1 to 1"}
{"compound": "Cc1ccc(NC(=O)N(c2ccccc2C(C)C)[C@H]2CC[C@@H](C=O)CC2)c(OC(F)F)n1", "note": "[Example 244]", "IC50": "> 1"}
{"compound": "Cc1ccc(NC(=O)N(c2ccccc2C(C)C)[C@H]2CC[C@@H](C(F)F)CC2)c(OC(F)F)n1", "note": "[Example 245, 3-(2-(difluoromethoxy)-6-methylpyridin-3-yl)-1-((1s,4s)-4-(difluoromethyl)cyclohexyl)-1-(2-isopropylphenyl)urea]", "IC50": "> 1"}
{"compound": "Cc1ccc(NC(=O)N(c2ccccc2C(C)C)[C@H]2CC[C@H](CC(C)(C)O)CC2)c(OC(F)F)n1", "note": "[Example 247, 3-(2-(difluoromethoxy)-6-methylpyridin-3-yl)-1-((1r,4r)-4-(2-hydroxy-2-methylpropyl)cyclohexyl)-1-(2-isopropylphenyl)urea]", "IC50": "0.01 to 0.1"}
{"compound": "Cc1ccc(NC(=O)N(c2ccccc2C(C)C)[C@H]2CC[C@H](c3nnn[nH]3)CC2)c(OC(F)F)n1", "note": "[Example 248]", "IC50": "0.1 to 1"}
{"compound": "Cc1ccc(NC(=O)N(c2ccccc2C(C)C)C2CC3(CCC(C(=O)O)CC3)C2)c(OC(F)F)n1", "note": "(stereo not drawn) [Example 249]", "IC50": "0.01 to 0.1"}
{"compound": "CC(=O)N1CC2(CCC(N(C(=O)Nc3ccc(C)nc3OC(F)F)c3ccccc3C(C)C)CC2)C1", "note": "[Example 250, 1-(2-acetyl-2-azaspiro[3.5]nonan-7-yl)-3-(2-(difluoromethoxy)-6-methylpyridin-3-yl)-1-(2-isopropylphenyl)urea]", "IC50": "0.1 to 1"}
{"compound": "CC(=O)N1CCC2(CC1)CC(N(C(=O)Nc1ccc(C)nc1OC(F)F)c1ccccc1C(C)C)C2", "note": "[Example 251, 1-(7-acetyl-7-azaspiro[3.5]nonan-2-yl)-3-(2-(difluoromethoxy)-6-methylpyridin-3-yl)-1-(2-isopropylphenyl)urea]", "IC50": "> 1"}
{"compound": "CC(C)Oc1ccc(NC(=O)N(c2ccccc2C(C)C)[C@H]2CC[C@H](C(=O)O)CC2)c(OC(C)C)n1", "note": "[Example 252, (1r,4r)-4-(3-(2,6-diisopropoxypyridin-3-yl)-1-(2-isopropylphenyl)ureido)cyclohexane-1-carboxylic acid]", "IC50": "0.1 to 1"}
{"compound": "COc1ccc(NC(=O)N(c2ccccc2C(C)C)[C@H]2CC[C@H](C(=O)O)CC2)c(OCc2ccccc2)n1", "note": "[Example 253, (1r,4r)-4-(3-(2-(benzyloxy)-6-methoxypyridin-3-yl)-1-(2-isopropylphenyl)ureido)cyclohexane-1-carboxylic acid]", "IC50": "0.01 to 0.1"}
{"compound": "COc1ccc(NC(=O)N(c2ccccc2C(C)C)[C@H]2CC[C@H](C(=O)O)CC2)c(O)n1", "note": "[Example 254]", "IC50": "> 1"}
{"compound": "Cc1ccc(NC(=O)N(c2ccccc2C(C)C)[C@H]2CC[C@@H](S(C)(=O)=O)CC2)c(OC(F)F)n1", "note": "[Example 255, 3-(2-(difluoromethoxy)-6-methylpyridin-3-yl)-1-(2-isopropylphenyl)-1-((1s,4s)-4-(methylsulfonyl)cyclohexyl)urea]", "IC50": "0.01 to 0.1"}
{"compound": "Cc1ccc(NC(=O)N(c2ccccc2C(C)C)[C@H]2CC[C@H](S(C)(=O)=O)CC2)c(OC(F)F)n1", "note": "[Example 256, 3-(2-(difluoromethoxy)-6-methylpyridin-3-yl)-1-(2-isopropylphenyl)-1-((1r,4r)-4-(methylsulfonyl)cyclohexyl)urea]", "IC50": "0.1 to 1"}
{"compound": "COc1ccc(NC(=O)N(c2ccccc2C(C)C)[C@H]2CC[C@@H](S(C)(=O)=O)CC2)c(OC(F)F)n1", "note": "[Example 257, 3-(2-(difluoromethoxy)-6-methoxypyridin-3-yl)-1-(2-isopropylphenyl)-1-((1s,4s)-4-(methylsulfonyl)cyclohexyl)urea]", "IC50": "< 0.01"}
{"compound": "COc1ccc(NC(=O)N(c2ccccc2C(C)C)[C@H]2CC[C@H](S(C)(=O)=O)CC2)c(OC(F)F)n1", "note": "[Example 258, 3-(2-(difluoromethoxy)-6-methoxypyridin-3-yl)-1-(2-isopropylphenyl)-1-((1r,4r)-4-(methylsulfonyl)cyclohexyl)urea]", "IC50": "0.1 to 1"}
{"compound": "CC(C)Oc1ccc(NC(=O)N(c2ccccc2C(C)C)[C@H]2CC[C@H](C(=O)O)CC2)c(OCC(F)F)n1", "note": "[Example 259, (1r,4r)-4-(3-(2-(2,2-difluoroethoxy)-6-isopropoxypyridin-3-yl)-1-(2-isopropylphenyl)ureido)cyclohexane-1-carboxylic acid]", "IC50": "0.01 to 0.1"}
{"compound": "Cc1ccc(NC(=O)N(c2ccccc2C(C)C)[C@H]2CC[C@@H](c3cccnc3)CC2)c(OC(F)F)n1", "note": "[Example 260, 3-(2-(difluoromethoxy)-6-methylpyridin-3-yl)-1-(2-isopropylphenyl)-1-((1s,4s)-4-(pyridin-3-yl)cyclohexyl)urea]", "IC50": "> 1"}
{"compound": "Cc1ccc(NC(=O)N(c2ccccc2C(C)C)[C@H]2CC[C@H](c3cccnc3)CC2)c(OC(F)F)n1", "note": "[Example 261, 3-(2-(difluoromethoxy)-6-methylpyridin-3-yl)-1-(2-isopropylphenyl)-1-((1r,4r)-4-(pyridin-3-yl)cyclohexyl)urea]", "IC50": "0.1 to 1"}
{"compound": "[2H]C([2H])([2H])Oc1ccc(NC(=O)N(c2ccccc2C(C([2H])([2H])[2H])C([2H])([2H])[2H])[C@H]2CC[C@H](C(=O)O)CC2)c(OC(F)F)n1", "note": "[Example 262]", "IC50": "< 0.01"}
{"compound": "CC(=O)N(C(C)=O)[C@H]1CC[C@@H](N(C(=O)Nc2ccc(C)nc2OC(F)F)c2ccccc2C(C)C)CC1", "note": "[Example 264, N-acetyl-N-((1s,4s)-4-(3-(2-(difluoromethoxy)-6-methylpyridin-3-yl)-1-(2-isopropylphenyl)ureido)-cyclohexyl)acetamide]", "IC50": "0.1 to 1"}
{"compound": "CC(=O)N(C(C)=O)[C@H]1CC[C@H](N(C(=O)Nc2ccc(C)nc2OC(F)F)c2ccccc2C(C)C)CC1", "note": "[Example 265, N-acetyl-N-((1r,4r)-4-(3-(2-(difluoromethoxy)-6-methylpyridin-3-yl)-1-(2-isopropylphenyl)ureido)-cyclohexyl)acetamide]", "IC50": "> 1"}
{"compound": "CC(=O)N[C@H]1CC[C@@H](N(C(=O)Nc2ccc(C)nc2OC(F)F)c2ccccc2C(C)C)CC1", "note": "[Example 266, N-((1s,4s)-4-(3-(2-(difluoromethoxy)-6-methylpyridin-3-yl)-1-(2-isopropylphenyl)ureido)cyclohexyl)acetamide]", "IC50": "0.1 to 1"}
{"target": "human LPAR1 (Homo sapiens, UniProt Q92633)", "experiment": "In vitro functional assay of lysophosphatidic acid receptor 1 activity (calcium flux)", "format": "cell-based", "details": "LPAR1 IC50", "units": {"IC50": "µM"}}
{"compound": "COc1nc(OC(F)F)c(NC(=O)N(c2ccccc2C(C)C)C2CCN(C(C)=O)CC2)cc1F", "note": "[Example 225, 1-(1-acetylpiperidin-4-yl)-3-(2-(difluoromethoxy)-5-fluoro-6-methoxypyridin-3-yl)-l-(2-isopropylphenyl)urea]", "IC50": "0.01 to 0.1"}
{"compound": "COC(=O)c1cc(Br)cnc1NC(=O)N(c1ccccc1C(C)C)C1CCN(C(C)=O)CC1", "note": "[Example 226]", "IC50": "0.1 to 1"}
{"compound": "CC(=O)N1CCC(N(C(=O)Nc2cncc(F)c2)c2ccccc2C(C)C)CC1", "note": "[Example 246]", "IC50": "> 1"}
